From paper PMC2688476, “Low affinity glucocorticoid binding site ligands as potential anti-fibrogenics” (Comparative Hepatology, 2009) come the findings set out here.

In series [1] the test system is rat CCl4 model of liver fibrosis. In words: Rat CCl4 model of liver fibrosis. The series is classed as in vivo. The conditions noted are these: 20 mg/kg i.p. weekly, 8 weeks CCl4. The method, then: To examine the effects of 4A3COOHmethyl on fibrosis, adult male rats were treated with 20 mg/kg body weight by i.p. injection every week during an 8 week twice weekly treatment with CCl4, to generate liver fibrosis. A reduced dose of 20 mg/kg body weight was chosen because the compound was to be administered to rats with compromised liver function. To avoid potential interactions with CCl4, toxicity (i.e., reductions in CCl4 hepatotoxicity that could be misinterpreted as anti-fibrogenic effects), 4A3COOHmethyl was not administered within a 48 hour period of CCl4 administration. Previous work has established that a similar dose of PCN – using the same dosing regimen – is sufficient to modulate fibrosis in animal models of fibrosis.
Figure 7 4A3COOHmethyl administration and liver fibrosis in a rat CCl4 model of liver fibrosis. […] Mean and standard deviation serum ALT (a); Mean and standard deviation collagen 1A1 mRNA levels (b); typical views of liver sections stained for sirius red, with a 100 μm scale bar (b); quantitative image analysis for fibrosis – data are the mean and standard deviation percentage sirius red staining from at least 4 separate animals in each treatment with at least 10 randomly selected fields examined for each animal (c). […]

A further series has as its system human HSCs. In words: Human HSC trans-differentiation/proliferation (confluence, α-sma). The conditions noted are these: confluence at day 12. The class given is cell-based. The method, then:
(§1) Figure 5 Screening for inhibitors of trans-differentiation in rat and human HSCs – Part 1. Rat HSCs were isolated and cultured for 2 days (T0) whereupon cells were treated with the indicated compound as outlined in methods section. After 9 days, cells were analyzed by Western blotting for α-smooth muscle actin (α-sma). Each lane contains 10 μg total protein/lane, results typical of at least 3 separate experiments (a). Human HSCs were treated with the indicated compound and confluence determined in randomly selected fields. Data are the mean and standard deviation confluence at day 12 of 3 separate treatment dishes from the same donor, typical of at least 3 separate donors (b).
Figure 6 Screening for inhibitors of trans-differentiation in rat and human HSCs – Part 2. Photomicrographs of human HSCs at day 12 of culture with the indicated treatment (a); levels of expression of α-smooth muscle actin (α-sma) (b) and levels of expression of fibrogenic marker mRNA transcripts in human HSCs after treatment selected compounds for 19 days. Data are the mean and standard deviation relative transcript level from 3 separate treatments on cells from the same donor, typical of at least 3 separate donors (c).
(§2) HSCs were isolated from rats (250–300 g body weight, Harlan, UK) by sequential pronase/collagenase perfusion of the liver followed by density gradient centrifugation and elutriation as previously outlined. Human HSCs were isolated by an essentially similar procedure using discarded tissue from patients undergoing a hepatectomy with patient consent and ethical approval by the Grampian Regional Ethical Committee. HSCs were seeded onto plastic culture dishes and cultured in Dulbecco's modified Eagle Medium (DMEM) containing 4.5 g/l of glucose and supplemented with 5% or 16% (v/v) fetal calf serum (for rat or human respectively), […] penicillin, 80 μg/ml streptomycin and 32 μg/ml gentamycin. Additional treatments were made by addition of compounds in an ethanol vehicle (stock solutions at 1000× final concentration). Ethanol at 0.1% (v/v) acted as control. Frequency of treatment (3 treatments per week/2 medium changes per week), as previously described.

The test system of another series is CYP3A1/3A23. Put plainly: Screening for PXR activators in rat hepatocytes via CYP3A induction (Western blot). The class given is cell-based. The settings on record: rat.
Series [2] deals with low affinity glucocorticoid binding site (LAGS) in rat liver microsomes (Rattus norvegicus, UniProt P70580). Put plainly: Competition with radiolabelled dexamethasone for specific binding to rat liver microsomes (LAGS activity). The settings on record: read-out: IC50% (competition of substituted progestins for binding to rat liver microsomes); Additional file 1; vs radiolabelled dexamethasone. The method, then:
A small volume of each incubation was removed to determine the total ligand concentration ([L0]) prior to removal of free unbound ligand by dextran/charcoal adsorption. […] Free ligand concentration at equilibrium was calculated by subtracting specifically bound ligand at equilibrium from the total ligand concentration (i.e. [L0] - [LRe]) and assumes receptor-ligand stoichiometry of 1:1.
In brief, rats were anaesthetized with pentobarbital and a 16G cannula inserted into the hepatic portal vein and secured. […] The liver was then excised and chopped roughly with ice-cooled TS buffer (10 mM Tris/HCl pH 7.4 containing 250 mM sucrose) and disrupted using a Potter-Elvehjem homogenisor. The resultant homogenate was then centrifuged at 12,000 g for 20 minutes at 4°C and the supernatant retained and centrifuged at 100,000 g for 60 minutes at 4°C. The resultant "microsomal" pellet was re-suspended in fresh TS buffer and re-centrifuged at 100,000 g to obtain a washed microsomal pellet. […] After overnight incubation on ice, free ligand was removed by charcoal dextran adsorption and bound radioligand determined in supernatants by liquid scintillation, essentially as previously described.
(In general: Liver microsomes are a subcellular fraction often used to study metabolism.)

The next series deals with rat HSCs. In words: Rat HSC-to-myofibroblast trans-differentiation (α-smooth muscle actin Western blot). The class given is cell-based. The settings on record: α-sma Western blot after 9 days of treatment. The method, then:
as §1, §2
In general terms: A western blot detects proteins with antibodies after separation by electrophoresis.

A further series concerns human myofibroblasts. Put plainly: Fibrogenic marker mRNA transcripts (TGFβ, TIMP1, collagen 1A1) in human myofibroblasts, qRT-PCR. The class given is cell-based. The settings on record: treatment for 19 days. The text has this:
Quantitative transcript expression was examined after reverse transcription (using a Taqman reverse transcription kit (Applied Biosystems)) using a PE Applied Biosystems ABI7700 and PE Applied Biosystems Gene Expression Assay™, incorporating sequence-specific forward, reverse and fluorescently labelled probes (see Table 2).
For orientation: Real-time PCR tracks product formation cycle by cycle.

Series [3] is described as follows: Pilot toxicity study in adult male rats. The class given is in vivo, rat. The conditions noted are these: 3 days at up to 100 mg/kg body weight i.p.; 24 hours after final treatment. As to the method:
Since there was no information in the literature regarding any potential adverse effects of 4A3COOHmethyl administration, a pilot toxicity study was initially undertaken, in which adult male rats were administered 4A3COOHmethyl for 3 days at up to 100 mg/kg body weight by i.p. injection.

The test system of a further series is CYP3A4. In words: Screening for PXR activators in human hepatocytes via CYP3A induction (Western blot). The class given is cell-based. The conditions noted are these: human.

Sequence of low affinity glucocorticoid binding site (LAGS) in rat liver microsomes (P70580 2-195): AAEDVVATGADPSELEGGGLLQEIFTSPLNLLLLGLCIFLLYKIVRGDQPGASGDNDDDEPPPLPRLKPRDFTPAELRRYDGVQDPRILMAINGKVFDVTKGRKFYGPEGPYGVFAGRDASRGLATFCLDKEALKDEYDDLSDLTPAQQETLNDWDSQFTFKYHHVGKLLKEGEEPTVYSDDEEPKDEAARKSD

A word on the IC50: it is the concentration at which inhibition is half-maximal. For `COC(=O)[C@H]1CC[C@H]2[C@@H]3CCC4=CC(=O)CC[C@]4(C)[C@H]3CC[C@]12C` [4A3COOHmethyl, 4 androstene-3-one 17β-carboxylic acid methyl ester], in series [1], the “fibrosis severity (α-sma staining, collagen 1a1 mRNA, sirius red staining)” value is reported as “did not significantly affect” and the “serum levels of ALT” value was “did not affect”. Further, the “inhibitory activity on human HSC trans-differentiation” value with human HSCs is “significant inhibitory activity”. The “activity as a PXR activator, rat” value in the series with CYP3A1/3A23 is recorded as “no activity”. In addition, the IC50 in series [2] amounted to 100 nM. In addition, in the series on rat HSCs, the “inhibition of rat HSC trans-differentiation” value was “effective”. Besides, in the series on human myofibroblasts, the “expression of TGFβ, TIMP1 and collagen 1A1 mRNAs in human myofibroblasts” value is “inhibited the expression of all mRNAs”. Further, in series [3], the “adverse effects (liver serum enzyme levels and liver pathology)” value is recorded as “no adverse effects were observed”. In addition, in the series with CYP3A4, the “activity as a PXR activator, human” value is “no activity”.
